Experimental data taken from US20070254928A1, “Use of Roflumilast for the Prophylaxis or Treatment of Emphysema” (Altana Pharma AG, priority 2004, published 2007).
Marks after values point to notes of the source that are not given here.

Tests used:
Format in all cases: in vivo
[1] = system: cigarette smoke induced emphysema in mice (C57BI/6J); test: Chronic model of cigarette smoke exposure in mice: morphometric assessment of emphysema (Lm, ISA); conditions: for Lm (mean linear intercept) / ISA (internal surface area of the lung): 7 months, mean ± SEM; for ISA (internal surface area of the lung): ISA=4VL/Lm; for Inhibition of emphysema formation (Lm and ISA), in words: smoke-exposed
Procedure: (§1) Effects of ROFLUMILAST in an Chronic Model of Cigarette Smoke Exposure in Mice
(§2) Eighty 6 week old male mice of the strain C57BI/6J (supplied Harlan-Italy, Udine, Italy) were used in this study. The mice were housed in groups of 7 to 10 in macrolon cages. Room temperature was kept at 22° to 24° C.; and relative humidity at 40 to 50%; food and water were supplied ad libitum. All animal experimentation was approved by the Local Ethical Committee of the University of Siena.
(§3) ROFLUMILAST was given p.o. by gavage in a volume of 10 μl suspension/g body weight 60 min prior to either air or smoke exposure.
(§4) The methodology for chronic smoke exposure has been previously described in detail (Cavarra et al; Am J Respir Crit Care Med 2001; Vol 164, pp 886-890). Briefly, mice were exposed to either the smoke of 3 cigarettes/day (commercial Virginia filter cigarettes: 12 mg of tar and 0.9 mg of nicotine), 5 days/week or to room air (controls) for 7 months, in especially designed macrolon cages (Tecniplast, Buguggiate, Italy). These cages (42.5×26.6×19 cm) are equipped with a disposable filter cover which enables the air to flow out of the cages and thus to be continuously renewed. The smoke was produced by the burning of a cigarette and was introduced into the chamber with the airflow generated by a mechanical ventilator (7025 Rodent Ventilator, Ugo Basile, Biological Research Instruments, Comerio, Italy), at a rate of 33 ml /min. A second mechanical ventilator was used to provide room air for dilution (1:8) of the smoke-stream. With this methodology the mice were exposed to the smoke originated by three cigarettes once a day for the duration of 90 min. In a pilot study, the efficiency of the smoke delivery system was tested in 12 mice by measuring blood HbCO by co-oxymetry.
Seven months after chronic exposure to room air or cigarette smoke (24 h after last exposure), 5 to 12 animals of each group, were anesthetized with ether and then exsanguinated by severing the abdominal aorta. The lungs were excised and fixed intratracheally with buffered formalin (5%) at a constant pressure of 20 cm H2O for at least 24 hours. Post-fixation lung volume (VL) was measured by water displacement. All lungs were then dehydrated, cleared in toluene and embedded under vacuum in paraffin. Two 7-μm transversal sections were made and stained with hematoxylin-eosin and/or periodic acid-Schiff (PAS). Two pathologists blinded to the exposure protocol carried out the morphological and morphometrical evaluation.
Morphometric assessment of emphysema included determination of the average inter-alveolar distance (mean linear intercept: Lm) and internal surface area estimated by the Lm method at postfixation lung volume. For the determination of the Lm for each pair of lungs, 40 histological fields were evaluated both vertically and horizontally. Examination of these numbers of fields meant that practically the entire lung area was evaluated. Internal surface area of the lung (ISA) was calculated by according to the formula: ISA=4VL/Lm.
(§5) All data were analyzed using GraphPad Prism software (GraphPad Software, San Diego, Calif., USA). For each parameter the values of the individual animals were averaged and the SEM was calculated. The significance of the differences was calculated using parametric one-way analysis of variance (ANOVA) with subsequent Bonferroni's multiple comparison post-test for selected pairs. A p value of <0.05 was considered significant.

[2] = system: cigarette smoke induced emphysema in mice (C57BI/6J); test: Chronic model of cigarette smoke exposure in mice: lung desmosine content by HPLC; conditions: for Desmosine (lung content): 7 months, mean ± SEM
Procedure: as §1, §2, §3, §4
Lung desmosine concentration was determined by High Pressure Liquid Chromatography (HPLC) essentially according to Cumiskey et al. (J Chromatogr B 1995, Vol 668, pp 199-207). Briefly, lung samples were homogenized in 5% TCA (1:9, w:v) and centrifuged for 10 min. at 4000 g at 4° C. The pellet was then washed twice with distilled water and hydrolyzed for 16 h at 130° C. in 6 N HCl.
After hydrolysis, the samples were centrifuged for 10 min at 2000 g and filtered through a FP 030/3 0.2 μm filter (Schleicher & Schuell). Aliquots (0.5 ml) of samples were desiccated under liquid nitrogen and then suspended in 0.6 ml 0.1 M sodium phosphate, pH 3.73.
The HPLC apparatus consisted of a single pump (Pro-Star 210, Varian) delivering isocratic mobile phase, of which 80% was 0.1 M dibasic sodium phosphate adjusted to pH 3.75 with phosphoric acid; the remaining 20% was acetonitrile. Sodium dodecyl sulphate (SDS) was added to a final concentration of 10 mM. The pH was re-adjusted after the addition of acetonitrile and SDS. The flow rate was 0.8 ml/min through a C18 (reverse phase MSORV 100A, Varian). Injection volumes of 100 μl of test samples diluted in 0.1 M sodium phosphate buffer, pH 3.75 was used to detect desmosine concentration. Detection of desmosine was by absorbance at 275 nm. Peak purity was checked with a Pro-Star 330 photodiode array detector (Varian) scanning from 200 to 400 nm. Isodesmosine eluted at approx. 9 min, and desmosine approx. at 12 min. Peak height, appopriate external calibration curves and internal standards were used to quantitate desmosine in unknown samples. Desmosine standards were from Elastin Co. (USA).
as §5

C57BI/6J mice = test: Chronic model of cigarette smoke exposure in mice: mortality; conditions: all groups, ROFLUMILAST 1 or 5 mg/kg p.o., 7 months
Procedure: as §2, §3
as §4, with “A second mechanical ventilator was used to provide room air for dilution (1:8) of the smoke-stream. With this methodology the mice were exposed to the smoke originated by three cigarettes once a day for the duration of 90 min. In a pilot study, the efficiency of the smoke delivery system was tested in 12 mice by measuring blood HbCO by co-oxymetry.” left out

[3] = air exposure, ROFLUMILAST 5 mg/kg p.o.
[4] = chronic model of cigarette smoke induced emphysema in mice, dose not given
[5] = cigarette smoke exposure, ROFLUMILAST 1 mg/kg p.o.
[6] = cigarette smoke exposure, ROFLUMILAST 5 mg/kg p.o.

O=C(Nc1c(Cl)cncc1Cl)c1ccc(OC(F)F)c(OCC2CC2)c1 [ROFLUMILAST, 3-cyclopropylmethoxy-4-difluoro-methoxy-N-(3,5-dichloropyrid-4-yl)benzamide]
Lm (mean linear intercept) [1, 3]: 33.48 ± 0.36 μm | ISA (internal surface area of the lung) [1, 3]: 1342.70 ± 23.39## cm^2 | Effect on increase of Lm, in words [1, 4]: can prevent the increase of Lm | Lm (mean linear intercept) [1, 5]: 40.79 ± 0.87 μm | ISA (internal surface area of the lung) [1, 5]: 1079.78 ± 35.61** cm^2 | Lm (mean linear intercept) [1, 6]: 34.28 ± 0.31 μm | ISA (internal surface area of the lung) [1, 6]: 1292.21 ± 29.63# cm^2 | Inhibition of emphysema formation (Lm and ISA), in words ([1]; ROFLUMILAST 1 mg/kg): unable to inhibit emphysema formation | Inhibition of emphysema formation (Lm and ISA), in words ([1]; ROFLUMILAST 5 mg/kg): gross inhibition of emphysema formation | Desmosine (lung content) [2, 3]: 2.91 ± 0.08 μg/lung | Effect on drop of the desmosine content in the lung, in words [2, 4]: can prevent the drop of the desmosine content in the lung | Desmosine (lung content) [2, 5]: 2.45 ± 0.11 μg/lung | Desmosine (lung content) [2, 6]: 2.98 ± 0.10 μg/lung | Lung desmosine content compared to air-exposed, in words ([2]; smoke-exposed, ROFLUMILAST 1 mg/kg): significantly lower lung desmosine content | Lung desmosine content compared to air-exposure, in words ([2]; smoke-exposed, ROFLUMILAST 5 mg/kg): Unchanged lung desmosine content | Mortality (C57BI/6J mice): No animal died
